Measurements taken from ChEMBL document CHEMBL5634077, “Recent advances in 1,2,3- and 1,2,4-triazole hybrids as antimicrobials and their SAR: A critical review” (2023).
Converted amounts (≈) assume the structure as drawn.

Legend:
Assay type in all cases: functional
Staphylococcus aureus [1] = assay: Antibacterial activity against methicillin-sensitive Staphylococcus aureus assessed as reduction in microbial growth incubated for 18 to 24 hrs by serial dilution method; settings: time 18-24 hrs
Staphylococcus aureus [2] = assay: Antibacterial activity against methicillin-resistant Staphylococcus aureus assessed as reduction in microbial growth incubated for 18 to 24 hrs by serial dilution method; settings: time 18-24 hrs
Staphylococcus aureus [3] = assay: Antibacterial activity against Staphylococcus aureus assessed as reduction in microbial growth incubated for 18 to 24 hrs by serial dilution method; settings: time 18-24 hrs
[4] = tested on: Staphylococcus epidermidis; assay: Antibacterial activity against Staphylococcus epidermidis assessed as inhibition of bacterial growth by microdilution method
Staphylococcus aureus [5] = assay: Antibacterial activity against Staphylococcus aureus assessed as inhibition of bacterial growth by microdilution method
Bacillus subtilis [6] = assay: Antibacterial activity against Bacillus subtilis assessed as inhibition of bacterial growth by microdilution method
[7] = tested on: Staphylococcus epidermidis; assay: Antibacterial activity against Staphylococcus epidermidis assessed as reduction in microbial growth
Escherichia coli = assay: Antibacterial activity against Escherichia coli MTCC 16521 assessed as reduction in microbial growth
Candida albicans = assay: Antifungal activity against Candida albicans MTCC 227 assessed as inhibition of fungal growth
Aspergillus niger = assay: Antifungal activity against Aspergillus niger MTCC 8189 assessed as inhibition of fungal growth
Bacillus subtilis [8] = assay: Antibacterial activity against Bacillus subtilis MTCC 441 assessed as reduction in microbial growth

| MIC [4] [µg/mL] | MIC (Staphylococcus aureus [5]) [µg/mL] | MIC (Bacillus subtilis [6]) [µg/mL] | Structure (SMILES) | MIC (Staphylococcus aureus [1]) [µg/mL] | MIC (Staphylococcus aureus [2]) [µg/mL] | MIC (Staphylococcus aureus [3]) [µg/mL] | also measured |
| --- | --- | --- | --- | --- | --- | --- | --- |
| 50 (≈ 98.7 µM) | 50 (≈ 98.7 µM) | 25 (≈ 49.4 µM) | Fc1cc(-n2cc(CSc3nc4cc(Br)ccc4s3)nn2)ccc1N1CCOCC1 | – | – | – | – |
| 12.5 (≈ 29.5 µM) | 6.25 (≈ 14.8 µM) | 12.5 (≈ 29.5 µM) | Fc1cc(-n2cc(COc3cc(Cl)cc(Cl)c3)nn2)ccc1N1CCOCC1 | – | – | – | – |
| 50 (≈ 129 µM) | 25 (≈ 64.3 µM) | 25 (≈ 64.3 µM) | Fc1cc(-n2cc(COc3cccc(Cl)c3)nn2)ccc1N1CCOCC1 | – | – | – | – |
| 25 (≈ 54.4 µM) | 12.5 (≈ 27.2 µM) | 6.25 (≈ 13.6 µM) | Fc1cc(-n2cc(CN3c4ccccc4Sc4ccccc43)nn2)ccc1N1CCOCC1 | – | – | – | – |
| 25 (≈ 61.7 µM) | 50 (≈ 123 µM) | 25 (≈ 61.7 µM) | Fc1cc(-n2cc(COc3cccc4cccnc34)nn2)ccc1N1CCOCC1 | – | – | – | – |
| 25 (≈ 59.2 µM) | 50 (≈ 118 µM) | 25 (≈ 59.2 µM) | O=c1cc(OCc2cn(-c3ccc(N4CCOCC4)c(F)c3)nn2)c2ccccc2o1 | – | – | – | – |
| 3.12 (≈ 7.4 µM) | 25 (≈ 59.3 µM) | 25 (≈ 59.3 µM) | O=C(OCc1cn(-c2ccc(N3CCOCC3)c(F)c2)nn1)c1cc2ccccc2[nH]1 | – | – | – | – |
| 6.25 (≈ 15.2 µM) | 25 (≈ 60.8 µM) | 12.5 (≈ 30.4 µM) | Fc1cc(-n2cc(CSc3nc4ccccc4o3)nn2)ccc1N1CCOCC1 | – | – | – | – |
| 50 (≈ 109 µM) | 12.5 (≈ 27.3 µM) | 3.12 (≈ 6.82 µM) | O=C1CS(=O)(=O)c2ccccc2N1Cc1cn(-c2ccc(N3CCOCC3)c(F)c2)nn1 | – | – | – | – |
| 25 (≈ 58.8 µM) | 1.56 (≈ 3.67 µM) | 6.25 (≈ 14.7 µM) | O=C1CSc2ccccc2N1Cc1cn(-c2ccc(N3CCOCC3)c(F)c2)nn1 | – | – | – | – |

Second part, the molecule before the results:

| Structure (SMILES) | MIC [4] [µg/mL] | MIC (Staphylococcus aureus [5]) [µg/mL] | MIC (Bacillus subtilis [6]) [µg/mL] | MIC (Staphylococcus aureus [1]) [µg/mL] | MIC (Staphylococcus aureus [2]) [µg/mL] | MIC (Staphylococcus aureus [3]) [µg/mL] | also measured |
| --- | --- | --- | --- | --- | --- | --- | --- |
| COc1c(N2CCN(C(=O)Cn3cc(CN4C(=O)C(=O)c5cc(F)ccc54)nn3)C(C)C2)c(F)cc2c(=O)c(C(=O)O)cn(C3CC3)c12 (stereo not drawn) | – | – | – | 0.03 | 0.03 | 0.03 | – |
| COc1c(N2CCN(C(=O)Cn3cc(CN4C(=O)C(=O)c5ccccc54)nn3)C(C)C2)c(F)cc2c(=O)c(C(=O)O)cn(C3CC3)c12 (stereo not drawn) | – | – | – | 0.03 | 0.03 | 0.03 | – |
| Cc1cc(=O)oc2cc(OCc3cn(-c4ccc(N5CCOCC5)c(F)c4)nn3)ccc12 | 25 (≈ 57.3 µM) | 25 (≈ 57.3 µM) | 50 (≈ 115 µM) | – | – | – | – |
| O=C(NCc1cn(CCCCn2cc(CNC(=O)Nc3ccc(Cl)cc3)nn2)nn1)Nc1ccc(Cl)cc1 | – | – | – | – | – | – | MIC [7]: 6 µM; MIC (Escherichia coli): 6 µM; MIC (Candida albicans): 6 µM (≈ 3.34 µg/mL); MIC (Aspergillus niger): 6 µM (≈ 3.34 µg/mL); MIC (Bacillus subtilis [8]): 6 µM |
| CN[C@@H]1[C@H](O[C@H]2[C@H](O[C@H]3[C@H](O)[C@@H](O)[C@H](N=C(N)N)[C@@H](O)[C@@H]3N=C(N)N)O[C@@H](C)[C@]2(O)C=O)O[C@@H](CO)[C@H](O)[C@H]1O [STREPTOMYCIN] | 3.12 (≈ 5.36 µM) | 6.25 (≈ 10.7 µM) | 6.25 (≈ 10.7 µM) | – | – | – | – |
| O=C(NCc1cn(CCCCCn2cc(CNC(=O)Nc3ccc(Cl)cc3)nn2)nn1)Nc1ccc(Cl)cc1 | – | – | – | – | – | – | MIC [7]: 6 µM; MIC (Escherichia coli): 6 µM; MIC (Candida albicans): 6 µM (≈ 3.43 µg/mL); MIC (Aspergillus niger): 6 µM (≈ 3.43 µg/mL); MIC (Bacillus subtilis [8]): 6 µM |
| O=C(NCc1cn(CCCn2cc(CNC(=O)Nc3ccc(Cl)cc3)nn2)nn1)Nc1ccc(Cl)cc1 | – | – | – | – | – | – | MIC [7]: 6 µM; MIC (Escherichia coli): 6 µM; MIC (Candida albicans): 6 µM (≈ 3.26 µg/mL); MIC (Aspergillus niger): 6 µM (≈ 3.26 µg/mL); MIC (Bacillus subtilis [8]): 6 µM |
| O=C(NCc1cn(CCCCCCn2cc(CNC(=O)Nc3ccc(Cl)cc3)nn2)nn1)Nc1ccc(Cl)cc1 | – | – | – | – | – | – | MIC [7]: 6 µM; MIC (Escherichia coli): 6 µM; MIC (Candida albicans): 6 µM (≈ 3.51 µg/mL); MIC (Aspergillus niger): 6 µM (≈ 3.51 µg/mL); MIC (Bacillus subtilis [8]): 6 µM |
| CO/N=C1/C(=O)N(Cc2cn(CC(=O)N3CCN(c4c(F)cc5c(=O)c(C(=O)O)cn(C6CC6)c5c4OC)CC3C)nn2)c2ccc(F)cc21 (stereo not drawn) | – | – | – | 0.03 | 0.03 | 0.03 | – |
| O=C(NCc1cn(CCCn2cc(CNC(=O)Nc3ccc(F)cc3)nn2)nn1)Nc1ccc(F)cc1 | – | – | – | – | – | – | MIC [7]: 6 µM; MIC (Escherichia coli): 6 µM; MIC (Candida albicans): 6 µM (≈ 3.06 µg/mL); MIC (Aspergillus niger): 6 µM (≈ 3.06 µg/mL); MIC (Bacillus subtilis [8]): 6 µM |
| O=C(NCc1cn(Cc2cccc(Cn3cc(CNC(=O)Nc4ccc(F)cc4)nn3)c2)nn1)Nc1ccc(F)cc1 | – | – | – | – | – | – | MIC [7]: 6 µM; MIC (Escherichia coli): 6 µM; MIC (Candida albicans): 6 µM (≈ 3.44 µg/mL); MIC (Aspergillus niger): 6 µM (≈ 3.44 µg/mL); MIC (Bacillus subtilis [8]): 6 µM |
| COc1c(N2CCN(C(=O)Cn3cc(CN4C(=O)C(=O)c5cc(Cl)cc(Cl)c54)nn3)C(C)C2)c(F)cc2c(=O)c(C(=O)O)cn(C3CC3)c12 (stereo not drawn) | – | – | – | 0.03 | 0.03 | 0.03 | – |
| O=C(NCc1cn(Cc2cccc(Cn3cc(CNC(=O)Nc4ccc(Cl)cc4)nn3)c2)nn1)Nc1ccc(Cl)cc1 | – | – | – | – | – | – | MIC [7]: 6 µM; MIC (Escherichia coli): 6 µM; MIC (Candida albicans): 6 µM (≈ 3.63 µg/mL); MIC (Aspergillus niger): 6 µM (≈ 3.63 µg/mL); MIC (Bacillus subtilis [8]): 6 µM |
| Fc1ccc(OCc2cn(-c3ccc(N4CCOCC4)c(F)c3)nn2)cc1 | 3.12 (≈ 8.38 µM) | 3.12 (≈ 8.38 µM) | 1.56 (≈ 4.19 µM) | – | – | – | – |
| O=C1COc2cc(Br)ccc2N1Cc1cn(-c2ccc(N3CCOCC3)c(F)c2)nn1 | 25 (≈ 51.2 µM) | 25 (≈ 51.2 µM) | 25 (≈ 51.2 µM) | – | – | – | – |
| O=C(NCc1cn(CCCCCn2cc(CNC(=O)Nc3ccc(F)cc3)nn2)nn1)Nc1ccc(F)cc1 | – | – | – | – | – | – | MIC [7]: 6 µM; MIC (Escherichia coli): 6 µM; MIC (Candida albicans): 6 µM (≈ 3.23 µg/mL); MIC (Aspergillus niger): 6 µM (≈ 3.23 µg/mL); MIC (Bacillus subtilis [8]): 6 µM |
| COc1c(N2CCN(C(=O)Cn3cc(CN4C(=O)C(=O)c5cccc(F)c54)nn3)C(C)C2)c(F)cc2c(=O)c(C(=O)O)cn(C3CC3)c12 (stereo not drawn) | – | – | – | 0.03 | 0.03 | 0.03 | – |
| Fc1ccccc1OCc1cn(-c2ccc(N3CCOCC3)c(F)c2)nn1 | 6.25 (≈ 16.8 µM) | 12.5 (≈ 33.6 µM) | 3.12 (≈ 8.38 µM) | – | – | – | – |
| COc1c(N2CCNC(C)C2)c(F)cc2c(=O)c(C(=O)O)cn(C3CC3)c12 (stereo not drawn) [GATIFLOXACIN] | – | – | – | 0.12 | 0.12 | 0.12 | – |
| COc1c(N2CCN(C(=O)Cn3cc(CN4C(=O)/C(=N/O)c5cc(F)ccc54)nn3)C(C)C2)c(F)cc2c(=O)c(C(=O)O)cn(C3CC3)c12 (stereo not drawn) | – | – | – | 0.03 | 0.03 | 0.03 | – |
| COc1c(N2CCN(C(=O)Cn3cc(CN4C(=O)C(=O)c5cc(C)ccc54)nn3)C(C)C2)c(F)cc2c(=O)c(C(=O)O)cn(C3CC3)c12 (stereo not drawn) | – | – | – | 0.03 | 0.03 | 0.03 | – |
| CCO/N=C1/C(=O)N(Cc2cn(CC(=O)N3CCN(c4c(F)cc5c(=O)c(C(=O)O)cn(C6CC6)c5c4OC)CC3C)nn2)c2ccc(C)cc21 (stereo not drawn) | – | – | – | 0.03 | 0.03 | 0.03 | – |
| CCO/N=C1/C(=O)N(Cc2cn(CC(=O)N3CCN(c4c(F)cc5c(=O)c(C(=O)O)cn(C6CC6)c5c4OC)CC3C)nn2)c2ccc(F)cc21 (stereo not drawn) | – | – | – | 0.03 | 0.03 | 0.03 | – |
| CO/N=C1/C(=O)N(Cc2cn(CC(=O)N3CCN(c4c(F)cc5c(=O)c(C(=O)O)cn(C6CC6)c5c4OC)CC3C)nn2)c2ccccc21 (stereo not drawn) | – | – | – | 0.03 | 0.03 | 0.03 | – |
| COc1c(N2CCN(C(=O)Cn3cc(CN4C(=O)/C(=N/O)c5ccccc54)nn3)C(C)C2)c(F)cc2c(=O)c(C(=O)O)cn(C3CC3)c12 (stereo not drawn) | – | – | – | 0.03 | 0.03 | 0.03 | – |
| CO/N=C1/C(=O)N(Cc2cn(CC(=O)N3CCN(c4c(F)cc5c(=O)c(C(=O)O)cn(C6CC6)c5c4OC)CC3C)nn2)c2c(F)cccc21 (stereo not drawn) | – | – | – | 0.03 | 0.03 | 0.03 | – |
| CC1(C)S[C@@H]2[C@H](NC(=O)Cc3ccccc3)C(=O)N2[C@H]1C(=O)O [PENICILLIN G] | 3.12 (≈ 9.33 µM) | 1.56 (≈ 4.67 µM) | 1.56 (≈ 4.67 µM) | – | – | – | – |
| CCO/N=C1/C(=O)N(Cc2cn(CC(=O)N3CCN(c4c(F)cc5c(=O)c(C(=O)O)cn(C6CC6)c5c4OC)CC3C)nn2)c2ccccc21 (stereo not drawn) | – | – | – | 0.03 | 0.03 | 0.03 | – |
| COc1c(N2CCN(C(=O)Cn3cc(CN4C(=O)/C(=N/O)c5cc(C)ccc54)nn3)C(C)C2)c(F)cc2c(=O)c(C(=O)O)cn(C3CC3)c12 (stereo not drawn) | – | – | – | 0.03 | 0.03 | 0.03 | – |
